In the supplement of paper PMC8612539:
In brackets after ≈: the same amount, converted by molar mass.

Experiments:
[1] = tested on: Pasteurella multocida; assay: minimum inhibitory concentration (MIC)
Procedure: (§1)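 Broth microdilution MIC (Sensititre BOPO7F bovine plate, CLSI methods) of 19 antimicrobials against field isolates of P. multocida, M. haemolytica, H. somni (deep nasopharyngeal swabs) and E. coli, Enterococcus spp. (rectal swabs) from weaned dairy heifers. Incubation 16-24 h at 35 C. MIC is the lowest concentration preventing visible growth. Values with <= or > lie at the tested range limits. Trimethoprim-sulfamethoxazole is given as the trimethoprim component of a 1:19 mixture.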

[2] = tested on: Enterococcus spp.; assay: minimum inhibitory concentration (MIC)
Procedure: as §1

CCCNC[C@]1(O)[C@H](C)O[C@@H](O[C@H]2[C@H](C)[C@@H](O[C@@H]3O[C@H](C)C[C@H](N(C)C)[C@H]3O)[C@](C)(O)C[C@@H](C)CN[C@H](C)[C@@H](O)[C@](C)(O)[C@@H](CC)OC(=O)[C@@H]2C)C[C@@]1(C)OC [Tulathromycin]
minimum inhibitory concentration [µg/mL]
Conditions	[1]	[2]
isolate (source animal id): 2	–	≤ 8
isolate (source animal id): 10	≤ 8	–
isolate (source animal id): 11	32 (≈ 39.7 µM)	–
isolate (source animal id): 12	32 (≈ 39.7 µM)	–
isolate (source animal id): 19	32 (≈ 39.7 µM)	–
isolate (source animal id): 23	16 (≈ 19.8 µM)	–
isolate (source animal id): 26	≤ 8	–
isolate (source animal id): 35	–	> 64
isolate (source animal id): 42	–	≤ 8
isolate (source animal id): 44	–	≤ 8
isolate (source animal id): 79	–	≤ 8
isolate (source animal id): 88	–	≤ 8
isolate (source animal id): 91	–	≤ 8
isolate (source animal id): 92	–	16 (≈ 19.8 µM)
isolate (source animal id): 98	≤ 8	–
isolate (source animal id): 104	> 64	–
isolate (source animal id): 111	–	≤ 8
isolate (source animal id): 115	32 (≈ 39.7 µM)	–
isolate (source animal id): 117	≤ 8	–
isolate (source animal id): 118	16 (≈ 19.8 µM)	–
isolate (source animal id): 121	32 (≈ 39.7 µM)	–
isolate (source animal id): 122	–	> 64
isolate (source animal id): 123	–	≤ 8
isolate (source animal id): 124	≤ 8	–
isolate (source animal id): 125	≤ 8	–
isolate (source animal id): 128	32 (≈ 39.7 µM)	–
isolate (source animal id): 131	> 64	–
isolate (source animal id): 133	–	≤ 8
isolate (source animal id): 135	> 64	–
isolate (source animal id): 136	32 (≈ 39.7 µM)	–
isolate (source animal id): 140	16 (≈ 19.8 µM)	–
isolate (source animal id): 144	16 (≈ 19.8 µM)	–
isolate (source animal id): 146	16 (≈ 19.8 µM)	–
isolate (source animal id): 150	64 (≈ 79.4 µM)	–
isolate (source animal id): 151	64 (≈ 79.4 µM)	–
isolate (source animal id): 153	16 (≈ 19.8 µM)	–
isolate (source animal id): 155	≤ 8	–
isolate (source animal id): 157	≤ 8	–
isolate (source animal id): 158	–	> 64
isolate (source animal id): 160	64 (≈ 79.4 µM)	–
isolate (source animal id): 164	64 (≈ 79.4 µM)	–
isolate (source animal id): 165	64 (≈ 79.4 µM)	–
isolate (source animal id): 167	≤ 8	–
isolate (source animal id): 168	≤ 8	≤ 8
isolate (source animal id): 169	≤ 8	≤ 8
isolate (source animal id): 170	≤ 8	–
isolate (source animal id): 171	≤ 8	≤ 8
isolate (source animal id): 172	≤ 8	–
isolate (source animal id): 173	16 (≈ 19.8 µM)	–
isolate (source animal id): 174	≤ 8	–
isolate (source animal id): 175	≤ 8	> 64
isolate (source animal id): 176	≤ 8	–
isolate (source animal id): 177	≤ 8	≤ 8
isolate (source animal id): 178	≤ 8	–
isolate (source animal id): 179	≤ 8	–
isolate (source animal id): 181	–	≤ 8
isolate (source animal id): 182	≤ 8	≤ 8
isolate (source animal id): 183	–	≤ 8
isolate (source animal id): 187	–	≤ 8
isolate (source animal id): 190	–	≤ 8
isolate (source animal id): 192	≤ 8	–
isolate (source animal id): 193	≤ 8	–
isolate (source animal id): 194	–	≤ 8
isolate (source animal id): 195	≤ 8	≤ 8
isolate (source animal id): 196	≤ 8	–
isolate (source animal id): 197	≤ 8	≤ 8
isolate (source animal id): 198	16 (≈ 19.8 µM)	–
isolate (source animal id): 199	≤ 8	–
isolate (source animal id): 200	≤ 8	–
isolate (source animal id): 201	≤ 8	–
isolate (source animal id): 203	≤ 8	–
isolate (source animal id): 204	≤ 8	–
isolate (source animal id): 205	16 (≈ 19.8 µM)	–
isolate (source animal id): 206	≤ 8	–
isolate (source animal id): 207	≤ 8	–
isolate (source animal id): 208	≤ 8	–
isolate (source animal id): 209	≤ 8	–
isolate (source animal id): 210	16 (≈ 19.8 µM)	–
isolate (source animal id): 211	–	≤ 8
isolate (source animal id): 213	≤ 8	–
isolate (source animal id): 214	–	16 (≈ 19.8 µM)
isolate (source animal id): 216	≤ 8	–
isolate (source animal id): 222	–	≤ 8
isolate (source animal id): 223	16 (≈ 19.8 µM)	≤ 8
isolate (source animal id): 227	≤ 8	–
isolate (source animal id): 228	–	> 64
isolate (source animal id): 229	≤ 8	–
isolate (source animal id): 230	–	> 64
isolate (source animal id): 233	≤ 8	–
isolate (source animal id): 234	≤ 8	–
isolate (source animal id): 235	–	> 64
isolate (source animal id): 236	–	≤ 8
isolate (source animal id): 237	16 (≈ 19.8 µM)	–
isolate (source animal id): 239	–	≤ 8
isolate (source animal id): 241	16 (≈ 19.8 µM)	> 64
isolate (source animal id): 244	–	≤ 8
isolate (source animal id): 245	≤ 8	–
isolate (source animal id): 246	–	≤ 8
isolate (source animal id): 247	16 (≈ 19.8 µM)	> 64
isolate (source animal id): 250	≤ 8	≤ 8
isolate (source animal id): 252	–	> 64
isolate (source animal id): 254	32 (≈ 39.7 µM)	–
isolate (source animal id): 255	16 (≈ 19.8 µM)	–
isolate (source animal id): 258	≤ 8	–
isolate (source animal id): 261	≤ 8	–
isolate (source animal id): 262	16 (≈ 19.8 µM)	–
isolate (source animal id): 268	–	> 64
isolate (source animal id): 269	≤ 8	–
isolate (source animal id): 270	≤ 8	–
isolate (source animal id): 274	≤ 8	–
isolate (source animal id): 275	≤ 8	–
isolate (source animal id): 276	16 (≈ 19.8 µM)	–
isolate (source animal id): 277	≤ 8	–
isolate (source animal id): 278	≤ 8	–
isolate (source animal id): 279	≤ 8	–
isolate (source animal id): 280	> 64	–
isolate (source animal id): 282	–	≤ 8
isolate (source animal id): 284	≤ 8	–
isolate (source animal id): 285	16 (≈ 19.8 µM)	> 64
isolate (source animal id): 287	16 (≈ 19.8 µM)	–
isolate (source animal id): 289	–	≤ 8
isolate (source animal id): 290	≤ 8	≤ 8
isolate (source animal id): 294	≤ 8	–
isolate (source animal id): 295	16 (≈ 19.8 µM)	–
isolate (source animal id): 296	≤ 8	≤ 8
isolate (source animal id): 298	–	≤ 8
isolate (source animal id): 301	–	≤ 8
isolate (source animal id): 307	≤ 8	–
isolate (source animal id): 310	16 (≈ 19.8 µM)	> 64
isolate (source animal id): 311	16 (≈ 19.8 µM)	–
isolate (source animal id): 312	≤ 8	–
isolate (source animal id): 313	16 (≈ 19.8 µM)	–
isolate (source animal id): 315	16 (≈ 19.8 µM)	–
isolate (source animal id): 316	16 (≈ 19.8 µM)	–
isolate (source animal id): 320	–	≤ 8
isolate (source animal id): 331	–	≤ 8
isolate (source animal id): 333	–	≤ 8
isolate (source animal id): 341	–	> 64
